Target: T1, recombinant human SAE enzyme (Homo sapiens, UniProt Q9UBT2)
T1 sequence (Q9UBT2 1-640): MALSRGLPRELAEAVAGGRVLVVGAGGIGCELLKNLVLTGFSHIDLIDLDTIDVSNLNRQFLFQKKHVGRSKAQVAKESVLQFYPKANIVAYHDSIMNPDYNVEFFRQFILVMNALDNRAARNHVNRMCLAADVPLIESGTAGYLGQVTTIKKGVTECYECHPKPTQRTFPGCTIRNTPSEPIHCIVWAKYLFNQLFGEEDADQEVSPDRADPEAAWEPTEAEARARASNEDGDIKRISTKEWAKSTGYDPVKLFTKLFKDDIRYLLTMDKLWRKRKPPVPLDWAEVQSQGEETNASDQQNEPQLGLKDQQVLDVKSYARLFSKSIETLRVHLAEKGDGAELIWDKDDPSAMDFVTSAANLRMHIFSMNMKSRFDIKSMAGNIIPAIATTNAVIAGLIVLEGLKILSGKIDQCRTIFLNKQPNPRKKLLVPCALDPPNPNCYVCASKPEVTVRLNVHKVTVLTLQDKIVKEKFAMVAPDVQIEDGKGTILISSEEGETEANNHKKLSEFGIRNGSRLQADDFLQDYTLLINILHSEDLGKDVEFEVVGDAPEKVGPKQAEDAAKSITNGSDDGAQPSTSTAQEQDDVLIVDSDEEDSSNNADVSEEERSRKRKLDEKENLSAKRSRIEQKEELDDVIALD
T1 sequence (Q9UBE0 1-346 partner): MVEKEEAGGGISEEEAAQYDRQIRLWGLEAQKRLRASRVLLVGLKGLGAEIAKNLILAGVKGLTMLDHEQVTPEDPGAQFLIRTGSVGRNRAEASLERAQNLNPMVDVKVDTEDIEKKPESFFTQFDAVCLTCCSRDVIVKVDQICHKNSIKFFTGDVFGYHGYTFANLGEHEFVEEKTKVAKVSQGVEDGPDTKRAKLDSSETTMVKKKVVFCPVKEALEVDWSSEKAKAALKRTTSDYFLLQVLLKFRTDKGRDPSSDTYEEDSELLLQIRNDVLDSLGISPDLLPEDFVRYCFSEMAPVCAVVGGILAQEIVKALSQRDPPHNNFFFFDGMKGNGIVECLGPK
Assay: SAE HTRF Enzyme Assay
Type: biochemical
Settings: for IC50: class symbols A-C; for inhibition at 0.111 µM: compound concentration 0.111 μM, read-out: Percent Inhibition
How it was run: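 Reaction with 0.11 nM recombinant human SAE, 0.5 μM ATP, 0.01 μM Ubc9-GST, 0.125 μM Sumo-Flag in HEPES pH 7.5, MgCl2, GSH, BSA, 105 min at 24 °C. Stopped with EDTA/KF buffer carrying Eu-anti-Flag and anti-GST-APC; HTRF read after 2 h; % inhibition or IC50.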

| SMILES | IC50 | inhibition at 0.111 µM |
| --- | --- | --- |
| NS(=O)(=O)OC[C@H]1C[C@@H](Nc2ncncc2C(=O)c2ccn(Cc3cccc(Br)c3F)n2)C[C@@H]1O [Compound I-282, {(1R,2S,4R)-4-[(5-{[1-(3-bromo-2-fluorobenzyl)-1H-pyrazol-3-yl]carbonyl}pyrimidin-4-yl)amino]-2-hydroxycyclopentyl}methyl sulfamate] | < 10 nM | 100% |
| NS(=O)(=O)OC[C@H]1C[C@@H](Nc2ncncc2C(=O)c2ccn(CC(=O)c3cccc(Cl)c3)n2)[C@H](O)[C@@H]1O [Compound I-283, [(1R,2R,3S,4R)-4-{[5-({1-[2-(3-chlorophenyl)-2-oxoethyl]-1H-pyrazol-3-yl}carbonyl)pyrimidin-4-yl]amino}-2,3-dihydroxyoyclopentyl]methyl sulfamate] | < 10 nM | 97% |
| NS(=O)(=O)OC[C@H]1C[C@@H](Nc2ncncc2C(=O)c2ccn(Cc3cccc(Br)n3)n2)[C@H](O)[C@@H]1O [Compound I-284, [(1R,2R,3S,4R)-4-{[5-({1-[(6-bromopyridin-2-yl)methyl]-1H-pyrazol-3-yl}carbonyl)pyrimidin-4-yl]amino}-2,3-dihydroxycyclopentyl]methyl sulfamate] | < 10 nM | 100% |
| NS(=O)(=O)OC[C@H]1C[C@@H](Nc2ncncc2C(=O)c2ccn(Cc3csc4ccc(Cl)cc34)n2)[C@H](O)[C@@H]1O [Compound I-285, [(1R,2R,3S,4R)-4-{[5-({1-[(5-chloro-1-benzothiophen-3-yl)methyl]-1H-pyrazol-3-yl}carbonyl)pyrimidin-4-yl]amino}-2,3-dihydroxycyclopentyl]methyl sulfamate] | < 10 nM | 99% |
| NS(=O)(=O)OC[C@H]1C[C@@H](Nc2ncncc2C(=O)c2ccn(Cc3c(F)cc(F)cc3F)n2)C[C@@H]1O [Compound I-286, {(1R,2S,4R)-2-hydroxy-4-[(5-{[1-(2,4,6-trifluorobenzyl)-1H-pyrazol-3-yl]carbonyl}pyrimidin-4-yl)amino]cyclopentyl}methyl sulfamate] | < 10 nM | 93% |
| NS(=O)(=O)OC[C@H]1C[C@@H](Nc2ncncc2C(=O)c2ccn(CC#CC3CC3)n2)C[C@@H]1O [Compound I-287, {(1R,2S,4R)-4-[(5-{[1-(3-cyclopropylprop-2-yn-1-yl)-1H-pyrazol-3-yl]carbonyl}pyrimidin-4-yl)amino]-2-hydroxycyclopentyl}methyl sulfamate] | < 10 nM | 95% |
| NS(=O)(=O)OC[C@H]1C[C@@H](Nc2ncncc2C(=O)c2ccn(Cc3ccc(Cl)c(C(F)(F)F)c3)n2)C[C@@H]1O [Compound I-288, [(1R,2S,4R)-4-{[5-({1-[4-chloro-3-(trifluoromethyl)benzyl]-1H-pyrazol-3-yl}carbonyl)pyrimidin-4-yl]amino}-2-hydroxycyclopentyl]methyl sulfamate] | < 10 nM | 97% |
| NS(=O)(=O)OC[C@H]1C[C@@H](Nc2ncncc2C(=O)c2ccn(Cc3cc(Cl)ccc3Cl)n2)C[C@@H]1O [Compound I-289, {(1R,2S,4R)-4-[(5-{[1-(2,5-dichlorobenzyl)-1H-pyrazol-3-yl]carbonyl}pyrimidin-4-yl)amino]-2-hydroxycyclopentyl}methyl sulfamate] | < 10 nM | 98% |
| NS(=O)(=O)OC[C@H]1C[C@@H](Nc2ncncc2C(=O)c2ccn(Cc3ccc(F)c(Br)c3)n2)[C@H](O)[C@@H]1O [Compound I-290, {(1R,2R,3S,4R)-4-[(5-{[1-(3-bromo-4-fluorobenzyl)-1H-pyrazol-3-yl]carbonyl}pyrimidin-4-yl)amino]-2,3-dihydroxycyclopentyl}methyl sulfamate] | < 10 nM | 99% |
| C=CCn1ccc(C(=O)c2cncnc2N[C@@H]2C[C@H](COS(N)(=O)=O)[C@@H](O)C2)c1 [Compound I-291, [(1R,2S,4R)-4-({5-[(1-allyl-1H-pyrrol-3-yl)carbonyl]pyrimidin-4-yl}amino)-2-hydroxycyclopentyl]methyl sulfamate] | 10 to 100 nM | 79% |
| NS(=O)(=O)OC[C@H]1C[C@@H](Nc2ncncc2C(=O)c2ccn(Cc3cccc(I)c3)n2)C[C@@H]1O [Compound I-292, {(1R,2S,4R)-2-Hydroxy-4-[(5-{[1-(3-iodobenzyl)-1H-pyrazol-3-yl]carbonyl}pyrimidin-4-yl)amino]cyclopentyl}methyl sulfamate] | < 10 nM | 98% |
| Cc1cc(C(=O)c2cncnc2N[C@@H]2C[C@H](COS(N)(=O)=O)[C@@H](O)[C@@H]2F)nn1Cc1cccc(I)c1 [Compound I-294, {(1R,2R,3R,4R)-3-fluoro-2-hydroxy-4-[(5-{[1-(3-iodobenzyl)-5-methyl-1H-pyrazol-3-yl]carbonyl}pyrimidin-4-yl)amino]cyclopentyl}methyl sulfamate] | < 10 nM | 100% |
| COc1cccc(Cn2ccc(C(=O)c3cncnc3N[C@@H]3C[C@H](COS(N)(=O)=O)[C@@H](O)C3)n2)n1 [Compound I-295, [(1R,2S,4R)-2-hydroxy-4-{[5-({1-[(6-methoxypyridin-2-yl)methyl]-1H-pyrazol-3-yl}carbonyl)pyrimidin-4-yl]amino}cyclopentyl]methyl sulfamate] | < 10 nM | 96% |
| NS(=O)(=O)OC[C@H]1C[C@@H](Nc2ncncc2C(=O)c2ccn(Cc3ccc(Cl)o3)c2)[C@@H](F)[C@@H]1O [Compound I-296, [(1R,2R,3R,4R)-4-{[5-({1-[(5-chloro-2-furyl)methyl]-1H-pyrrol-3-yl}carbonyl)pyrimidin-4-yl]amino}-3-fluoro-2-hydroxycyclopentyl]methyl sulfamate] | < 10 nM | 100% |
| Cc1cc(Cn2ccc(C(=O)c3cncnc3N[C@@H]3C[C@H](COS(N)(=O)=O)[C@@H](O)[C@@H]3F)c2)no1 [Compound I-297, [(1R,2R,3R,4R)-3-fluoro-2-hydroxy-4-{[5-({1-[(5-methylisoxazol-3-yl)methyl]-1H-pyrrol-3-yl}carbonyl)pyrimidin-4-yl]amino}cyclopentyl]methyl sulfamate] | < 10 nM | 97% |
| Cc1cccc(Cn2ccc(C(=O)c3cncnc3N[C@@H]3C[C@H](COS(N)(=O)=O)[C@@H](O)C3)n2)n1 [Compound I-298, [(1R,2S,4R)-2-hydroxy-4-{[5-({1-[(6-methylpyridin-2-yl)methyl]-1H-pyrazol-3-yl}carbonyl)pyrimidin-4-yl]amino}cyclopentyl]methyl sulfamate] | < 10 nM | 97% |
| NS(=O)(=O)OC[C@H]1C[C@@H](Nc2ncncc2C(=O)c2ccn(Cc3cncc(Br)c3)c2)C[C@@H]1O [Compound I-299, [(1R,2S,4R)-4-{[5-({1-[(5-Bromopyridin-3-yl)methyl]-1H-pyrrol-3-yl}carbonyl)pyrimidin-4-yl]amino}-2-hydroxycyclopentyl]methyl sulfamate] | < 10 nM | 99% |
| NS(=O)(=O)OC[C@H]1C[C@@H](Nc2ncncc2C(=O)c2ccn(Cc3ccccc3)c2)C[C@@H]1O [Compound I-300, [(1R,2S,4R)-4-({5-[(1-Benzyl-1H-pyrrol-3-yl)carbonyl]pyrimidin-4-yl}amino)-2-hydroxycyclopentyl]methyl sulfamate] | < 10 nM | 97% |
